Our source for the IC50 and inhibition values is ChEMBL document CHEMBL1135124, “Novel bicyclic oxazolone derivatives as anti-angiogenic agents” (Bioorg Med Chem Lett, 2002).

Experiment [1] has as its system A-431. In words: Inhibitory activity against proliferation of human epidermoid carcinoma (A431) cells. The class given is functional, cell-based.
The species named for experiment [2] is Gallus gallus. Briefly: Anti-angiogenic activity was assessed by inhibition of the vascular growth in the chick embryo chorioallantoic membrane (CAM assay) at 125 nM. The class given is functional, tissue-based.
Experiment [3] concerns L1210. Briefly: Inhibitory activity against proliferation of murine leukemia (L1210) cells. It is filed as functional, cell-based. Conditions: Mus musculus.

A value given as a limit tells only on which side of the number the result lay.

In the case of `C[C@]1(C#CCCCCc2ccccc2)O[C@@H]2OC(=O)N(C(=O)CCl)[C@@H]2CC1=O`, the concentration for half-maximal inhibition (IC50) in experiment [1] amounted to 56 µM; in experiment [3], 27 µM. The inhibition in experiment [2] was determined as 60%.
On the same counts, the results for `CCCCCC#C[C@@]1(C)O[C@@H]2OC(=O)N(C(=O)CCl)[C@@H]2CC1=O` are 47 µM, 31 µM and 70%.
Regarding `CCCCCC#C[C@@]1(C)O[C@@H]2OC(=O)N(C(=O)CCl)[C@@H]2C[C@@H]1O`, the figures for the IC50 in experiment [1] and in experiment [3] were 52 µM and over 100 µM, respectively. In experiment [2], the inhibition turned out to be 40%.
Taken in the same sequence, the figures for `CCCCCC#C[C@@]1(C)O[C@@H]2OC(=O)N(C(=O)CCl)[C@@H]2C[C@H]1O` were 75 µM, over 100 µM and 25%.
For the compound `CCCCCC1OC1[C@@]1(C)O[C@@H]2OC(=O)N(C(=O)CCl)[C@@H]2C[C@@]12CO2` (stereo partly drawn), the IC50 in experiment [1] was found to be 93 µM; in experiment [3], 89 µM.
With `CCCCC/C=C/[C@@]1(C)O[C@@H]2OC(=O)N(C(=O)CCl)[C@@H]2CC1=O`, the IC50 in experiment [1] and in experiment [3] was 81 µM throughout. In experiment [2], this compound showed an inhibition of 50%.
Consider `CCCCCC1OC1[C@@]1(C)O[C@@H]2OC(=O)N(C(=O)CCl)[C@@H]2CC1=O` (stereo partly drawn), for which the half-inhibitory concentration (IC50) worked out at 116 µM in experiment [1] and 193 µM in experiment [3]. In addition, the inhibition in experiment [2] was 58%.
Turning to `CCCCCC#C[C@]1(C)O[C@@H]2OC(=O)N(C(=O)CCl)[C@@H]2CC1=O`, the IC50 in experiment [1] worked out at 5 µM; in experiment [3], 32 µM. This compound also yielded an inhibition in experiment [2] of 50%.
With `CCCCCCC[C@H]1O[C@@H]2OC(=O)N(C(=O)CCl)[C@@H]2CC1=O`, the results for the concentration for half-maximal inhibition (IC50) in experiment [1] and in experiment [3] were 79 µM and 96 µM, respectively. In experiment [2], this compound had an inhibition of 87%.
Taken in the same sequence, the figures for `CCCCCCC[C@@]1(C)O[C@@H]2OC(=O)N(C(=O)CCl)[C@@H]2CC1=O` were 78 µM, 28 µM and 60%.
On the same counts, the results for `COC#C[C@@]1(C)O[C@@H]2OC(=O)N(C(=O)CCl)[C@@H]2CC1=O` are 64 µM, 74 µM and 60%.
On the same counts, the results for `CO[C@@H]1[C@H](OC(=O)/C=C/C=C/C=C/C=C/C(=O)O)CC[C@]2(CO2)[C@H]1[C@@]1(C)O[C@@H]1CC=C(C)C` [FUMAGILLIN] are 5 µM, 8 µM and 85%.
Consider `CCCCCC1OC1[C@@]1(C)O[C@@H]2OC(=O)N(C(=O)CCl)[C@@H]2C[C@]12CO2` (stereo partly drawn), for which the 50% inhibitory concentration (IC50) in experiment [1] is 33 µM; in experiment [3] it was 22 µM. This compound yielded an inhibition in experiment [2] of 19%.

By IC50 is commonly meant the concentration that gives 50% inhibition. Low values mean greater potency, high ones weaker potency. Usually inhibition stands for the change of the read-out against control, counted positive when it falls.
